Test system: Trichophyton mentagrophytes ATCC 9533
Assay: AOAC Official Method 961.02 Germicidal Spray Method, fungal conidia on glass carriers
Format: cell-based
Conditions: CMC + QAH, QAH 0.010%; 10 min contact
Source text: (§1) In this method, a series of glass slides (“carriers”) were inoculated with a representative test organism and the carriers were dried under ambient conditions. The dried organisms on the surface of the carrier were then sequentially treated with the composition of the present disclosure in the form of a spray product and were exposed for a pre-determined exposure time. After exposure, the carriers were sequentially transferred to a liquid subculture medium specifically selected to neutralize the composition of the present disclosure and to recover any surviving test organism. The carriers were incubated and visually examined for the presence or absence of growth. […] Required organisms for a disinfection claim include but are not limited to Staphylococcus aureus, Salmonella choleraesuis and Pseudomonas aeruginosa.
(§2) The conidiospore suspension was macerated in a tissue grinder. The suspension was filtered through sterile cotton to remove the hyphae and hyphal fragments.
(§3) Vortex-mixed the inoculum periodically during inoculation of the carriers. • Immediately spread the inoculum uniformly over the majority of the carrier surface using a sterile loop. […] High volume screening studies were conducted in some cases where only 4 organism-inoculated carriers were treated at specified concentrations of CTAB. Once all of the carriers had been inoculated, the carriers were placed in an incubator at 37° C. for 40 minutes until completely dry.
(§4) • After drying, each carrier was sprayed with the respective disinfection formulae 10 times in 10 seconds at a distance of 30 cm. • Timed the treatment interval. Ten (10) minutes after each carrier had been exposed to the disinfectant, the excess liquid was removed and the carriers were transferred in a sequentially timed fashion into the culture tubes containing 20 ml neutralization broth (Letheen Broth with 0.07% Lecithin /0.5% Tween 80) to neutralize the disinfectant. • After the carriers were deposited in the respective culture tubes, the tubes were recapped and the cultures were thoroughly resuspended. • Incubated all neutralization tubes at 28 ±1° C. for 14 days. • After 14 days, the cultures within the tubes were examined for growth. The percentage of the treated carriers showing growth was recorded.

Row | Structure (SMILES) | Trichophyton mentagrophytes Growth Rate [%]
1 | CCCCCCCCCCCCCCCC[N+](C)(C)Cc1ccccc1.[Cl-] [BDAC, Benzyl-dimethylhexadecylammonium chloride] | 0

Same assay, conditions: CMC + QAH, QAH 0.100%; 10 min contact

Row | Structure (SMILES) | Trichophyton mentagrophytes Growth Rate [%]
2 | CCCCCCCCCCCCCCCC[N+](C)(C)Cc1ccccc1.[Cl-] [BDAC, Benzyl-dimethylhexadecylammonium chloride] | 0

Same assay, conditions: CMC + QAH, QAH 1.000%; 10 min contact

Row | Structure (SMILES) | Trichophyton mentagrophytes Growth Rate [%]
3 | CCCCCCCCCCCCCCCC[N+](C)(C)Cc1ccccc1.[Cl-] [BDAC, Benzyl-dimethylhexadecylammonium chloride] | 0

Same assay, conditions: Water + QAH, QAH 0.010%; 10 min contact

Row | Structure (SMILES) | Trichophyton mentagrophytes Growth Rate [%]
4 | CCCCCCCCCCCCCCCC[N+](C)(C)Cc1ccccc1.[Cl-] [BDAC, Benzyl-dimethylhexadecylammonium chloride] | 0

Same assay, conditions: Water + QAH, QAH 0.100%; 10 min contact

Row | Structure (SMILES) | Trichophyton mentagrophytes Growth Rate [%]
5 | CCCCCCCCCCCCCCCC[N+](C)(C)Cc1ccccc1.[Cl-] [BDAC, Benzyl-dimethylhexadecylammonium chloride] | 0

Same assay, conditions: Water + QAH, QAH 1.000%; 10 min contact

Row | Structure (SMILES) | Trichophyton mentagrophytes Growth Rate [%]
6 | CCCCCCCCCCCCCCCC[N+](C)(C)Cc1ccccc1.[Cl-] [BDAC, Benzyl-dimethylhexadecylammonium chloride] | 0

Test system: Aspergillus niger ATCC 6275
Assay: as above
Format: cell-based
Conditions: CMC + QAH, QAH 0.010%; 10 min contact
Source text: as §1, §2, §3, §4

Row | Structure (SMILES) | Aspergillus niger Growth Rate [%]
7 | CCCCCCCCCCCCCCCC[N+](C)(C)Cc1ccccc1.[Cl-] [BDAC, Benzyl-dimethylhexadecylammonium chloride] | 100

Same assay, conditions: CMC + QAH, QAH 0.100%; 10 min contact

Row | Structure (SMILES) | Aspergillus niger Growth Rate [%]
8 | CCCCCCCCCCCCCCCC[N+](C)(C)Cc1ccccc1.[Cl-] [BDAC, Benzyl-dimethylhexadecylammonium chloride] | 25

Same assay, conditions: CMC + QAH, QAH 1.000%; 10 min contact

Row | Structure (SMILES) | Aspergillus niger Growth Rate [%]
9 | CCCCCCCCCCCCCCCC[N+](C)(C)Cc1ccccc1.[Cl-] [BDAC, Benzyl-dimethylhexadecylammonium chloride] | 0

Same assay, conditions: Water + QAH, QAH 0.010%; 10 min contact

Row | Structure (SMILES) | Aspergillus niger Growth Rate [%]
10 | CCCCCCCCCCCCCCCC[N+](C)(C)Cc1ccccc1.[Cl-] [BDAC, Benzyl-dimethylhexadecylammonium chloride] | 100

Same assay, conditions: Water + QAH, QAH 0.100%; 10 min contact

Row | Structure (SMILES) | Aspergillus niger Growth Rate [%]
11 | CCCCCCCCCCCCCCCC[N+](C)(C)Cc1ccccc1.[Cl-] [BDAC, Benzyl-dimethylhexadecylammonium chloride] | 75

Same assay, conditions: Water + QAH, QAH 1.000%; 10 min contact

Row | Structure (SMILES) | Aspergillus niger Growth Rate [%]
12 | CCCCCCCCCCCCCCCC[N+](C)(C)Cc1ccccc1.[Cl-] [BDAC, Benzyl-dimethylhexadecylammonium chloride] | 0

Test system: Penicillium variable ATCC 32333
Assay: as above
Format: cell-based
Conditions: CMC + QAH, QAH 0.010%; 10 min contact
Source text: as §1, §2, §3, §4

Row | Structure (SMILES) | Penicillium variable Growth Rate [%]
13 | CCCCCCCCCCCCCCCC[N+](C)(C)Cc1ccccc1.[Cl-] [BDAC, Benzyl-dimethylhexadecylammonium chloride] | 0

Same assay, conditions: CMC + QAH, QAH 0.100%; 10 min contact

Row | Structure (SMILES) | Penicillium variable Growth Rate [%]
14 | CCCCCCCCCCCCCCCC[N+](C)(C)Cc1ccccc1.[Cl-] [BDAC, Benzyl-dimethylhexadecylammonium chloride] | 0

Same assay, conditions: CMC + QAH, QAH 1.000%; 10 min contact

Row | Structure (SMILES) | Penicillium variable Growth Rate [%]
15 | CCCCCCCCCCCCCCCC[N+](C)(C)Cc1ccccc1.[Cl-] [BDAC, Benzyl-dimethylhexadecylammonium chloride] | 0

Same assay, conditions: Water + QAH, QAH 0.010%; 10 min contact

Row | Structure (SMILES) | Penicillium variable Growth Rate [%]
16 | CCCCCCCCCCCCCCCC[N+](C)(C)Cc1ccccc1.[Cl-] [BDAC, Benzyl-dimethylhexadecylammonium chloride] | 0

Same assay, conditions: Water + QAH, QAH 0.100%; 10 min contact

Row | Structure (SMILES) | Penicillium variable Growth Rate [%]
17 | CCCCCCCCCCCCCCCC[N+](C)(C)Cc1ccccc1.[Cl-] [BDAC, Benzyl-dimethylhexadecylammonium chloride] | 0

Same assay, conditions: Water + QAH, QAH 1.000%; 10 min contact

Row | Structure (SMILES) | Penicillium variable Growth Rate [%]
18 | CCCCCCCCCCCCCCCC[N+](C)(C)Cc1ccccc1.[Cl-] [BDAC, Benzyl-dimethylhexadecylammonium chloride] | 0

Test system: Pseudomonas aeruginosa ATCC 15442
Assay: AOAC Official Method 961.02 Germicidal Spray Method, bacteria on glass carriers
Format: cell-based
Conditions: CMC + QAH, QAH 0.010%; 10 min contact
Source text: as §1
(§5) Method Adapted to the Preparation of Bacteria Cultures from −80° C. Freshly Recovered Stock. […] Added 10 μL of the thawed stock to a tube containing 10 mL synthetic broth and then vortexed to mix. Discarded the rest of cryovial stock. • Incubated the tube at 36 ±1° C. for 24 hours (h). Briefly vortexed the 24 h culture prior to transfer. For this final subculture step, inoculated two 20×150 mm tubes containing 10 mL synthetic broth with […] of the 24 h synthetic broth culture. • Incubated 48 h at 36±1° C. Using a Vortex-style mixer, mixed synthetic broth test cultures 3-4 seconds and let stand 10 minutes at room temperature before continuing. Removed the upper portion of each culture, leaving behind any debris or clumps, and transferred to a sterile tube. Titrated the culture by plating on synthetic agar plates, and diluted to 5×10^8 Colony Forming Units (CFU) per mL.
(§6) High volume screening studies were conducted in some cases where only 4 organism-inoculated carriers were treated at specified concentrations of CTAB. Vortex-mixed the inoculum periodically during inoculation of the carriers. • Immediately spread the inoculum uniformly over the majority of the carrier surface using a sterile loop. […] Covered dish immediately and repeated operation until 64 carriers had been prepared for the test. Once all of the carriers had been inoculated, placed in incubator at 37° C. for 40 minutes until dry.
(§7) • After the test organisms were dried on the surface of the carrier, each carrier was sprayed with the respective disinfection formulae 10 times in 10 seconds at a distance of 30 cm. • Treatment interval was timed. Ten (10) minutes after each carrier had been sprayed by the disinfectant, the excess liquid was removed and the carriers were transferred in a sequentially timed fashion into the culture tubes containing 20 ml neutralizer (Letheen Broth with 0.07% Lecithin/0.5% Tween 80/0.1% Sodium Thiosulfate) to neutralize the disinfectant. […] The percentage of the treated carriers showing growth after 48 hours was recorded.

Row | Structure (SMILES) | Pseudomonas aeruginosa Growth Rate [%]
19 | CCCCCCCCCCCCCCCC[N+](C)(C)Cc1ccccc1.[Cl-] [BDAC, Benzyl-dimethylhexadecylammonium chloride] | 0

Same assay, conditions: CMC + QAH, QAH 0.100%; 10 min contact

Row | Structure (SMILES) | Pseudomonas aeruginosa Growth Rate [%]
20 | CCCCCCCCCCCCCCCC[N+](C)(C)Cc1ccccc1.[Cl-] [BDAC, Benzyl-dimethylhexadecylammonium chloride] | 0

Same assay, conditions: CMC + QAH, QAH 1.000%; 10 min contact

Row | Structure (SMILES) | Pseudomonas aeruginosa Growth Rate [%]
21 | CCCCCCCCCCCCCCCC[N+](C)(C)Cc1ccccc1.[Cl-] [BDAC, Benzyl-dimethylhexadecylammonium chloride] | 0

Same assay, conditions: Water + QAH, QAH 0.010%; 10 min contact

Row | Structure (SMILES) | Pseudomonas aeruginosa Growth Rate [%]
22 | CCCCCCCCCCCCCCCC[N+](C)(C)Cc1ccccc1.[Cl-] [BDAC, Benzyl-dimethylhexadecylammonium chloride] | 100

Same assay, conditions: Water + QAH, QAH 0.100%; 10 min contact

Row | Structure (SMILES) | Pseudomonas aeruginosa Growth Rate [%]
23 | CCCCCCCCCCCCCCCC[N+](C)(C)Cc1ccccc1.[Cl-] [BDAC, Benzyl-dimethylhexadecylammonium chloride] | 25

Same assay, conditions: Water + QAH, QAH 1.000%; 10 min contact

Row | Structure (SMILES) | Pseudomonas aeruginosa Growth Rate [%]
24 | CCCCCCCCCCCCCCCC[N+](C)(C)Cc1ccccc1.[Cl-] [BDAC, Benzyl-dimethylhexadecylammonium chloride] | 25

Test system: Staphylococcus aureus ATCC 6538
Assay: as above
Format: cell-based
Conditions: CMC + QAH, QAH 0.010%; 10 min contact
Source text: as §1, §5, §6, §7

Row | Structure (SMILES) | Staphylococcus aureus Growth Rate [%]
25 | CCCCCCCCCCCCCCCC[N+](C)(C)Cc1ccccc1.[Cl-] [BDAC, Benzyl-dimethylhexadecylammonium chloride] | 0

Same assay, conditions: CMC + QAH, QAH 0.100%; 10 min contact

Row | Structure (SMILES) | Staphylococcus aureus Growth Rate [%]
26 | CCCCCCCCCCCCCCCC[N+](C)(C)Cc1ccccc1.[Cl-] [BDAC, Benzyl-dimethylhexadecylammonium chloride] | 0

Same assay, conditions: CMC + QAH, QAH 1.000%; 10 min contact

Row | Structure (SMILES) | Staphylococcus aureus Growth Rate [%]
27 | CCCCCCCCCCCCCCCC[N+](C)(C)Cc1ccccc1.[Cl-] [BDAC, Benzyl-dimethylhexadecylammonium chloride] | 0

Same assay, conditions: Water + QAH, QAH 0.010%; 10 min contact

Row | Structure (SMILES) | Staphylococcus aureus Growth Rate [%]
28 | CCCCCCCCCCCCCCCC[N+](C)(C)Cc1ccccc1.[Cl-] [BDAC, Benzyl-dimethylhexadecylammonium chloride] | 100

Same assay, conditions: Water + QAH, QAH 0.100%; 10 min contact

Row | Structure (SMILES) | Staphylococcus aureus Growth Rate [%]
29 | CCCCCCCCCCCCCCCC[N+](C)(C)Cc1ccccc1.[Cl-] [BDAC, Benzyl-dimethylhexadecylammonium chloride] | 0

Same assay, conditions: Water + QAH, QAH 1.000%; 10 min contact

Row | Structure (SMILES) | Staphylococcus aureus Growth Rate [%]
30 | CCCCCCCCCCCCCCCC[N+](C)(C)Cc1ccccc1.[Cl-] [BDAC, Benzyl-dimethylhexadecylammonium chloride] | 0

Test system: select bacteria and fungal organisms
Assay: Germicidal spray disinfection, summary over the tested organisms
Format: cell-based
Conditions: 0.01% QAH in CMC; 10-minute contact time
Method: All experiments were conducted according to the protocol outlined in AOAC Official Method 961.02 (Germicidal Spray Method), which is a carrier-based method used to evaluate disinfection efficacy of aerosol/pump-based spray products and liquid products for registration with regulatory agencies such as the U.S. EPA and Health Canada.
It was expected that if the CTAB was replaced by QAH's of similar structure that the disinfection of selected bacteria and fungal organisms would be similarly achieved. […] In the case of bacteria testing, the experimental procedure was as outlined in Example 1 for disinfection of bacterial cultures. In the case of fungal organisms, the experimental procedure was as outlined in Example 1 for the preparation of fungal cultures.

Row | Structure (SMILES) | effectiveness against the target organisms
31 | CCCCCCCCCCCCCCCC[N+](C)(C)Cc1ccccc1.[Cl-] [BDAC, Benzyl-dimethylhexadecylammonium chloride] | remarkable effectiveness

Source: patent US20200245616A1, “A Disinfectant Composition with Extended Antimicrobial Effects” (Siamons International Inc., priority 2017, published 2020)
